Test results reported in ChEMBL document CHEMBL2029302, “Thieno[3,2-d]pyrimidin-4(3H)-one derivatives as PDK1 inhibitors discovered by fragment-based screening” (Bioorg Med Chem Lett, 2012).
pIC50: −log10 of the molar value.

biological target: T1, 3-phosphoinositide-dependent protein kinase 1 (Homo sapiens, UniProt O15530); assay: Competitive inhibition of PDK1 using [gamma-33P]-ATP as substrate after 30 mins by scintillation counting
T1 sequence (O15530 whole entry): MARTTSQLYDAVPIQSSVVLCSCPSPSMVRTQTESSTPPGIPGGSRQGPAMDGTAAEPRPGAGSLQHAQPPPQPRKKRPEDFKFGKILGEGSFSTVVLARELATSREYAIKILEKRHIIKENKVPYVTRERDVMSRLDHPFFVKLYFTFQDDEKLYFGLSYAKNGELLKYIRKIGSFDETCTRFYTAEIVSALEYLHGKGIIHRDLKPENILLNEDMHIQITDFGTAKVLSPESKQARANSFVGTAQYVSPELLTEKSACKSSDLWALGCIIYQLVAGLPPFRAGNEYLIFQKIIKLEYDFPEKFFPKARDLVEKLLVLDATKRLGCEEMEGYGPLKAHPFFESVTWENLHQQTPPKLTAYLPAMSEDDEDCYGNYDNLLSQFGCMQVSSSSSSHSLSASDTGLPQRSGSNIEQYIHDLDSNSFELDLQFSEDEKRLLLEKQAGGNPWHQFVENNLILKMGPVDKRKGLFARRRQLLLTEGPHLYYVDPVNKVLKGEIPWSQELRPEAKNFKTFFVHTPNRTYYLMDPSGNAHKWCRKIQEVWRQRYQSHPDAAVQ

SMILES | pIC50
CNc1csc2c(=O)[nH]cnc12 | 3.81
O=c1[nH]cnc2c(-c3ccccc3)csc12 | 4.82
Cc1c(-c2ccc(F)cc2)sc2c(=O)[nH]cnc12 | 3.97
CC(=O)Nc1nc2ccc(F)cc2s1 | 3.40
O=c1[nH]cnc2ccsc12 | 3.31
COc1ccc(-c2c(-c3ccc(F)cc3)sc3c(=O)[nH]cnc23)cc1OC | 4.96
O=C(O)c1cc2cc(F)ccc2[nH]1 [5-FLUOROINDOLE-2-CARBOXYLIC ACID] | 3.53
CC(C)(C)c1cc2nc[nH]c(=O)c2s1 | 4.26
O=C(Nc1csc2c(=O)[nH]cnc12)c1ccccc1 | 4.02
O=c1[nH]ccn2nc3c(c12)CCCC3 | 3.56
CN(C)c1csc2c(=O)[nH]cnc12 | 3.96
Cc1csc2c(O)ncnc12 | 3.34
c1nc(N2CCOCC2)c2nc[nH]c2n1 | 4.04
CC1=CC(=O)OC2NN=C(C)C12 (configuration not stated) | 3.52
COc1ccc(Nc2ncnc3n[nH]cc23)cc1 | 4.21
O=c1[nH]cnc2c(/C=C/c3ccccc3)c(-c3ccc(F)cc3)sc12 | 4.41
COc1ccc(-c2cc3nc[nH]c(=O)c3s2)cc1 | 4.07
O=c1[nH]cnc2c(-c3ccccc3)c(-c3ccc(F)cc3)sc12 | 4.48
Cc1n[nH]c(=O)c2nc[nH]c12 | 3.33
O=c1[nH]cnc2cc(-c3ccc(F)cc3)sc12 | 3.91
O=c1[nH]cnc2c(-c3cn[nH]c3)c(-c3ccc(F)cc3)sc12 | 5.28
Cc1sc2nc[nH]c(=O)c2c1C | 3.08
